Assay results taken from patent US12234223B2, “Phthalazinone compound, and preparation method therefor and medical use thereof” (SHANGHAI JEMINCARE PHARMACEUTICALS CO., LTD, priority 2020, dated 2025).
pIC50: −log10 of the molar value.

Key:
[1] = In-vivo pharmacokinetics in rats, oral administration; parameters: species or system male SD rats; details: for AUC(0-inf) / Cmax / half-life: male, SD, rat, oral 10 mg/kg, plasma; for F: oral 10 mg/kg vs intravenous 1 mg/Kg
Experimental: In this experimental example, the in-vivo pharmacokinetic evaluation was made for rats by intravenous injection and oral administration.
(§1) Experimental methods and conditions: male SD rats, 6 to 8 weeks old; all animals had free access to food and water; 5 min, 15 min, 30 min, 1 hr, 2 hr, 4 hr, 8 hr, 24 hr and 48 hr after the rats were subjected to a single intravenous injection of 1 mg/Kg of a compound to be tested (solvent 5% DMSO/15% Solutol/80% Saline), or 15 min, 30 min, 1 hr, 2 hr, 4 hr, 6 hr, 8 hr, 24 hr and 48 hr after the rats were subjected to oral intragastric administration of 10 mg/kg (solvent 5% DMSO/10% Solutol/85% Saline), blood was collected from orbits, not less than 50 μL of each sample was collected, and heparin sodium was used for anticoagulation; the collected samples were placed on ice, and the plasma was centrifugally separated within 1 hour for testing. The drug concentration in the plasma was detected by liquid chromatography tandem mass spectrometry (LC/MS/MS), and the pharmacokinetic parameters were calculated by Phoenix WinNonlin software. Embodiment 82 in CN110612294 A was taken as a control sample 1.

[2] = In-vivo pharmacokinetics in dogs, oral administration; parameters: species or system male Beijing Marshall beagles; details: for AUC(0-inf) / Cmax / half-life: male, beagle, dog, oral 10 mg/kg, plasma; for F: oral 10 mg/kg vs intravenous 1 mg/Kg
Experimental: In this experimental example, the in-vivo pharmacokinetic evaluation was made for dogs by intravenous injection and oral administration.
Experimental methods and conditions: male Beijing Marshall beagles, 12 to 18 months old; the beagles were subjected to administration half an hour after feeding; 5 min, 15 min, 30 min, 1 hr, 2 hr, 4 hr, 8 hr, 24 hr, 48 hr and 72 hr after the beagles were subjected to a single intravenous injection of 1 mg/Kg of a compound to be tested (solvent 5% DMSO/10% Solutol/85% Saline), or 15 min, 30 min, 1 hr, 2 hr, 4 hr, 6 hr, 8 hr, 24 hr, 48 hr and 72 hr after the beagles were subjected to oral intragastric administration of 10 mg/kg (solvent 5% DMSO/10% Solutol/85% Saline), blood was collected from orbits, not less than 50 μL of each sample was collected, and heparin sodium was used for anticoagulation; the collected samples were placed on ice, and the plasma was centrifugally separated within 1 hour for testing. The drug concentration in the plasma was detected by liquid chromatography tandem mass spectrometry (LC/MS/MS), and the pharmacokinetic parameters were calculated by Phoenix WinNonlin software. Embodiment 82 in CN110612294 A was taken as a control sample 1.

VCaP cells = assay: Inhibitory effect on VCaP cell proliferation (Cell Titer Glo); type: cell-based; details: Homo sapiens, 144 h; for pIC50: VCaP cells, 5% FBS and 0.1 nM R1881, 6 days; for Emax: maximum degree of VCaP cell proliferation inhibition, 6 days
Experimental: A tumor cell line Vcap (ATCC Cat. No. CRL-2876) was respectively cultured with DMEM (Gibco Cat. No. 11965-092) medium containing 10% FBS (Gibco Cat. No. 10099-141C). During testing, Vcap cells were replaced with a DMEM culture fluid containing 5% FBS and 0.1 nM R1881 (Sigma Cat. No. R0908). The assay method was as follows:
Vcap cells were seeded to a 384-well plate (Perkin Elmer Cat. No. 6007460) at a cell density of 1200 cells/well and a volume of 20 μL/well; after the cells were incubated overnight in a carbon dioxide incubator (Thermo), the prepared compound solutions with different concentrations were added at a volume of 5 μL/well; meanwhile, a corresponding solvent was provided as a control; after the cells were continuously incubated in the incubator for 6 days, the cell plate and the contents thereof were equilibrated to room temperature; 25 μL of a Cell Titer Glor (Promega Cat. No. G7573) reagent was added to each well; after vibration and uniform mixing, incubation in the dark was performed for 10-30 minutes, and a signal value was detected with Envision microplate reader (PerkinElmer).
A percentage inhibition rate of compound-treated wells was calculated through solvent control wells on the plate, GraphPad prism was used to fit the percentage inhibition rate data corresponding to different concentrations, and IC50 value was calculated by a 4-parameter nonlinear logistic formula.
Emax: a maximum degree of VCaP cell proliferation inhibition. IC50: a compound concentration required to achieve half the maximum degree of VCaP cell proliferation inhibition.

[3] = In-vivo pharmacokinetics in mice, oral administration; parameters: species or system male CD1 mice; details: for AUC(0-inf) / Cmax / half-life: male, CD1, mouse, oral 10 mg/kg, plasma; for F: oral 10 mg/kg vs intravenous 1 mg/Kg
Experimental: In this experimental example, the in-vivo pharmacokinetic evaluation was made for mice by intravenous injection and oral administration.
as §1, with “male CD1 mice,” for “male SD rats,”, “8” for “8 hr, 24”, “and 24” for “and 48”, “the mice” for “the rats”, “Solutol/80% Saline) (saline in the present application all means a saline solution),” for “Solutol/80% Saline),”

| SMILES | AUC(0-inf) [1] [ng·h/mL] | Cmax [1] [ng/mL] | half-life [1] [h] | F [1] [%] | AUC(0-inf) [2] [ng·h/mL] | Cmax [2] [ng/mL] | half-life [2] [h] | F [2] [%] | pIC50 (VCaP cells) | Emax (VCaP cells) [%] | AUC(0-inf) [3] [ng·h/mL] | Cmax [3] [ng/mL] | half-life [3] [h] | F [3] [%] |
| --- | --- | --- | --- | --- | --- | --- | --- | --- | --- | --- | --- | --- | --- | --- |
| CC1(C)[C@H](NC(=O)c2ccc(N3CCC(CN4CCN(c5ccc6c(=O)n([C@H]7CCC(=O)NC7=O)ncc6c5)CC4)CC3)cc2)C(C)(C)[C@H]1Oc1ccc(C#N)c(Cl)c1 [Compound 28A] | 3210 | 173 | 8.28 | 5.13 | 15400 | 868 | 34.3 | 33.9 | 8.01 | 74 |  |  |  |  |
| CC1(C)[C@H](NC(=O)c2ccc(N3CCC(CN4CCN(c5ccc6c(=O)n(C7CCC(=O)NC7=O)nc(F)c6c5)CC4)CC3)cc2)C(C)(C)[C@H]1Oc1ccc(C#N)c(Cl)c1 (some centres unmarked) [Compound 29] | 6200 | 253 | 13.4 | 11.9 |  |  |  |  | 7.25 | 66 | 13400 | 677 | 7.91 | 24.1 |
| CC1(C)[C@H](NC(=O)c2ccc(N3CCC(CN4CCN(c5ccc6c(=O)n(C7CCC(=O)NC7=O)ncc6c5)CC4)CC3)cc2)C(C)(C)[C@H]1Oc1ccc(C#N)c(Cl)c1 (some centres unmarked) [Compound 1] | 2650 | 147 | 7.62 | 11.9 | 14100 | 482 | 19.9 | 44.1 |  |  | 18900 | 1260 | 6.22 | 68.8 |
